Test results reported in patent US9765056B2, “Indole and pyrrole compounds, a process for their preparation and pharmaceutical compositions containing them” (LES LABORATOIRES SERVIER, priority 2013, dated 2017).
Structures can show the parent of a compound that is named as a salt.

Experiments:
[1] = target: Bcl-2 protein (histag-Bcl-2, UniProtKB P10415) (Homo sapiens (Human), UniProt P10415); assay: Inhibition of Bcl-2 by the fluorescence polarisation technique; assay type: binding; conditions: fluorescence polarisation test; method A, or method B where underlined (underlining not visible); read-out: IC50 (nM) Bcl-2 FP
From the text: Inhibition of Bcl-2 by the fluorescence polarisation technique

[2] = tested on: RS4;11 leukaemia tumour line; assay: In vitro cytotoxicity, Microculture Tetrazolium Assay (MTT); assay type: cell-based; conditions: Homo sapiens; RS4;11 cells, 48 hours exposure
Description: The cytotoxicity studies were carried out on the RS4;11 leukaemia tumour line.
The cells are distributed onto microplates and exposed to the test compounds for 48 hours. The cell viability is then quantified by a colorimetric assay, the Microculture Tetrazolium Assay (Cancer Res., 1987, 47, 939-942).

Bcl-2 protein, sequence (P10415 whole entry): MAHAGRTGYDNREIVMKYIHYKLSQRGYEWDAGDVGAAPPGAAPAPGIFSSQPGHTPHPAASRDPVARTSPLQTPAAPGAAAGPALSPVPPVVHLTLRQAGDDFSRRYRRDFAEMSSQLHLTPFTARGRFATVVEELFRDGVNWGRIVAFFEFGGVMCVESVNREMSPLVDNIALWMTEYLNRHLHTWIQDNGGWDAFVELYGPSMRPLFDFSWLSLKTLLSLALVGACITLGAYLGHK

Row | Structure (SMILES) | IC50 [1] [nM] | IC50 [2] [nM]
1 | Cc1cc(C(=O)N(c2ccc(O)cc2)c2ccc3c(c2)CCN3)cn1-c1cc2c(cc1C(=O)N1Cc3ccccc3C[C@H]1CN1CCOCC1)CCC2 [Example 110, N-(2,3-Dihydro-1H-indol-5-yl)-N-(4-hydroxyphenyl)-5-methyl-1-(6-{[(3S)-3-(morpholin-4-ylmethyl)-3,4-dihydroisoquinolin-2(1H)-yl]carbonyl}-2,3-dihydro-1H-inden-5-yl)-1H-pyrrole-3-carboxamide hydrochloride] | 8.1 | 291
2 | Cc1cc(C(=O)N(c2ccc(O)cc2)c2ccc3[nH]ccc3c2)cn1-c1cc2c(cc1C(=O)N1Cc3ccccc3C[C@H]1CN1CCN(C)CC1)OCO2 [Example 87, N-(4-Hydroxyphenyl)-N-(1H-indol-5-yl)-5-methyl-1-(6-{[(3S)-3-[(4-methylpiperazin-1-yl)methyl]-3,4-dihydroisoquinolin-2(1H)-yl]carbonyl}-1,3-benzodioxol-5-yl)-1H-pyrrole-3-carboxamide] | 4.4 | 138
3 | CN1CCN(C[C@@H]2Cc3ccccc3CN2C(=O)c2cc3c(cc2-n2cc(C(=O)N(c4ccc(O)cc4)c4ccc5[nH]ccc5c4)c4ccccc42)OCO3)CC1 [Example 37, N-(4-Hydroxyphenyl)-N-(1H-indol-5-yl)-1-(6-{[(3S)-3-[(4-methylpiperazin-1-yl)methyl]-3,4-dihydroisoquinolin-2(1H)-yl]carbonyl}-1,3-benzodioxol-5-yl)-1H-indole-3-carboxamide] | 3.8 | 47.1
4 | O=C(c1cn(-c2ccccc2C(=O)N2Cc3ccccc3C[C@H]2CN2CCCCC2)c2ccccc12)N(c1ccccc1)c1ccc(O)cc1 [Example 173, N-(4-Hydroxyphenyl)-N-phenyl-1-{2-[(3S)-3-(piperidin-1-ylmethyl)-1,2,3,4-tetrahydroisoquinoline-2-carbonyl]phenyl}-1H-indole-3-carboxamide] | 168 | 2040
5 | Cc1cc(C(=O)N(c2ccc(O)cc2)c2ccc(F)cc2)cn1-c1cc(Br)ccc1C(=O)N1Cc2ccccc2C[C@H]1CN1CCN(C)CC1 [Example 50, 1-(5-Bromo-2-{[(3S)-3-[(4-methylpiperazin-1-yl)methyl]-3,4-dihydroisoquinolin-2(1H)-yl]carbonyl}phenyl)-N-(4-fluorophenyl)-N-(4-hydroxyphenyl)-5-methyl-1H-pyrrole-3-carboxamide] | 7.4 | 301
6 | NC[C@@H]1Cc2ccccc2CN1C(=O)c1cc2c(cc1-n1nc(C(=O)N(c3ccccc3)c3ccccc3)c3ccccc31)OCO2 [Example 132, 1-{6-[(3S)-3-(Aminomethyl)-1,2,3,4-tetrahydroisoquinoline-2-carbonyl]-2H-1,3-benzodioxol-5-yl}-N,N-diphenyl-1H-indazole-3-carboxamide] | 31.7 | 1860
7 | Cc1cc(C(=O)N(c2ccc(O)cc2)c2ccc3c(c2)CCN3C)cn1-c1cc2c(cc1C(=O)N1Cc3ccccc3C[C@H]1C)OCO2 [Example 115, N-(4-Hydroxyphenyl)-5-methyl-N-(1-methyl-2,3-dihydro-1H-indol-5-yl)-1-(6-{[(3R)-3-methyl-3,4-dihydroisoquinolin-2(1H)-yl]carbonyl}-1,3-benzodioxol-5-yl)-1H-pyrrole-3-carboxamide hydrochloride] | 14.5 | 272

The remaining molecules from weak to strong by IC50 [1], led by results:

Row | IC50 [1] [nM] | Structure (SMILES) | IC50 [2] [nM]
8 | 83.8 | CN1CCN(C[C@@H]2Cc3ccccc3CN2C(=O)c2cc3c(cc2-n2cc(C(=O)N(c4ccc(O)c(Cl)c4)c4ccc5c(ccn5C)c4)c4ccccc42)OCO3)CC1 [Example 81, N-(3-Chloro-4-hydroxyphenyl)-N-(1-methyl-1H-indol-5-yl)-1-(6-{[(3S)-3-[(4-methylpiperazin-1-yl)methyl]-3,4-dihydroisoquinolin-2(1H)-yl]carbonyl}-1,3-benzodioxol-5-yl)-1H-indole-3-carboxamide hydrochloride] | 652
9 | 57.2 | Cc1ccc(N(C(=O)c2cn(-c3cc4c(cc3C(=O)N3Cc5ccccc5C[C@H]3CN3CCN(C)CC3)OCO4)c3ccccc23)c2ccc3[nH]ccc3c2)cc1 [Example 55, N-(1H-Indol-5-yl)-N-(4-methylphenyl)-1-(6-{[(3S)-3-[(4-methylpiperazin-1-yl)methyl]-3,4-dihydroisoquinolin-2(1H)-yl]carbonyl}-1,3-benzodioxol-5-yl)-1H-indole-3-carboxamide] | 1020
10 | 20.5 | Cc1cc(C(=O)N(c2ccccc2)c2ccc(O)c(Cl)c2)cn1-c1cc(Cl)ccc1C(=O)N1Cc2ccccc2C[C@H]1CN1CCN(C)CC1 [Example 27, N-(3-Chloro-4-hydroxyphenyl)-1-(5-chloro-2-{[(3S)-3-[(4-methylpiperazin-1-yl)methyl]-3,4-dihydroisoquinolin-2(1H)-yl]carbonyl}phenyl)-5-methyl-N-phenyl-1H-pyrrole-3-carboxamide hydrochloride] | 479
11 | 19.6 | Cc1ccc(N(C(=O)c2cc(C)n(-c3cc4c(cc3C(=O)N3Cc5ccccc5C[C@H]3CN3CCOCC3)OCO4)c2)c2ccc(O)cc2)cc1 [Example 106, N-(4-Hydroxyphenyl)-5-methyl-N-(4-methylphenyl)-1-(6-{[(3S)-3-(morpholin-4-ylmethyl)-3,4-dihydroisoquinolin-2(1H)-yl]carbonyl}-1,3-benzodioxol-5-yl)-1H-pyrrole-3-carboxamide hydrochloride] | 521
12 | 9 | CN1CCN(C[C@@H]2Cc3ccccc3CN2C(=O)c2ccc(Br)cc2-n2cc(C(=O)N(c3ccc(O)cc3)c3ccc4c(ccn4C)c3)c3ccccc32)CC1 [Example 69, 1-(5-Bromo-2-{[(3S)-3-[(4-methylpiperazin-1-yl)methyl]-3,4-dihydroisoquinolin-2(1H)-yl]carbonyl}phenyl)-N-(4-hydroxyphenyl)-N-(1-methyl-1H-indol-5-yl)-1H-indole-3-carboxamide hydrochloride] | 67.6
13 | 4.2 | O=C(c1cn(-c2ccccc2C(=O)N2Cc3ccccc3C[C@H]2CO)c2ccccc12)N(c1ccccc1)c1ccc(O)cc1 [Example 172, 1-{2-[(3S)-3-(Hydroxymethyl)-1,2,3,4-tetrahydroisoquinoline-2-carbonyl]phenyl}-N-(4-hydroxyphenyl)-N-phenyl-1H-indole-3-carboxamide] | 1200
14 | 4.1 | Cc1c(C(=O)N(c2ccc(O)cc2)c2cnc3c(ccn3C)c2)cn(-c2cc(Cl)ccc2C(=O)N2Cc3ccccc3C[C@H]2CN2CCOCC2)c1C [Example 209, 1-(5-Chloro-2-{[(3S)-3-(morpholin-4-ylmethyl)-3,4-dihydroisoquinolin-2(1H)-yl]carbonyl}phenyl)-N-(4-hydroxyphenyl)-4,5-dimethyl-N-(1-methyl-1H-pyrrolo[2,3-b]pyridin-5-yl)-1H-pyrrole-3-carboxamide hydrochloride] | 62.9
15 | 3.7 | Cc1cc(C(=O)N(c2ccc(O)cc2)c2ccc(Cl)cc2)cn1-c1cc2c(cc1C(=O)N1Cc3ccccc3C[C@H]1CN1CCN(C)CC1)OCO2 [Example 85, N-(4-Chlorophenyl)-N-(4-hydroxyphenyl)-5-methyl-1-(6-{[(3S)-3-[(4-methylpiperazin-1-yl)methyl]-3,4-dihydroisoquinolin-2(1H)-yl]carbonyl}-1,3-benzodioxol-5-yl)-1H-pyrrole-3-carboxamide] | 129
